# Source: ChEMBL document CHEMBL5370579, “Structure-based lead optimization to improve potency and selectivity of a novel tetrahydroimidazo[1,2-a]pyridine-5-carboxylic acid series of heparanase-1 inhibitor” (Bioorg Med Chem, 2023)
# The source made the active and inactive calls. The rule behind the calls is not given here.
# Legend:
# [1] = molecular target: T1, Heparanase (Homo sapiens, UniProt Q9Y251); assay: Inhibition of recombinant human HPSE1 using biotinylated heparan sulfate-Eu cryptate as substrate pre-incubated for 10 mins followed by substrate addition and measured after 60 mins by fluorescence based HTRF assay
# T1 sequence (Q9Y251 whole entry): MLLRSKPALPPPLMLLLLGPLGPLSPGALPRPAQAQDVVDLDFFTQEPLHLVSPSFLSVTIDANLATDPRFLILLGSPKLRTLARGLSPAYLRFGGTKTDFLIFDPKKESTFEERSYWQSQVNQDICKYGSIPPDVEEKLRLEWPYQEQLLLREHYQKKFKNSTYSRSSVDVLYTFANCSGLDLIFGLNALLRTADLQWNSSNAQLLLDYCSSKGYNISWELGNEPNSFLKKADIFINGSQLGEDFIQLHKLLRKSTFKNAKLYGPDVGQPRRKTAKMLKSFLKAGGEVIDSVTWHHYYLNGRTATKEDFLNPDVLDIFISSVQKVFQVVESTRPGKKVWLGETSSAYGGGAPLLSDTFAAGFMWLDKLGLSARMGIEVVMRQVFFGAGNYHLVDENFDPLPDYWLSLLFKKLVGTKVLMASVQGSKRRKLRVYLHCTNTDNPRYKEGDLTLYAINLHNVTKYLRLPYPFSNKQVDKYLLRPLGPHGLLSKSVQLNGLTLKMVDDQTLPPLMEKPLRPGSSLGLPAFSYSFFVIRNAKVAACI
# [2] = Drug concentration in C57BL/6J mouse plasma at 30 mg/kg, sc measured after 1 hrs by LC-MS/MS analysis; assay type: ADME, organism-based
# [3] = Half life in C57BL/6J mouse at 0.5 mg/kg, iv measured after 0.083 to 24 hrs by LC-MS/MS analysis; assay type: ADME, organism-based; settings: in vivo, time 0.083-24 hrs
# [4] = Drug concentration in C57BL/6J mouse plasma at 30 mg/kg, sc measured after 4 hrs by LC-MS/MS analysis; assay type: ADME, organism-based
# [5] = Protein binding in C57BL/6J mouse serum at 1 ug/ml measured after 4 hrs by LC-MS/MS analysis; assay type: ADME, cell-free; settings: at 1 µg/mL, read-out: PB (converted)
# [6] = Drug concentration in C57BL/6J mouse plasma at 3 mg/kg, sc measured after 4 hrs by LC-MS/MS analysis; assay type: ADME, organism-based
# [7] = test system: Mus musculus; assay: In vivo inhibition of HPSE1 in C57BL/6J mouse at 3 to 100 mg/kg, sc measured after 1 to 4 hrs; assay type: functional, organism-based; settings: dose 3-100 mg/kg, time 1-4 hrs
# [8] = Inhibition of recombinant human GBA using 4-MUBDG as substrate pre-incubated for 10 mins followed by substrate addition and measured after 24 hrs by fluorescence based assay
# [9] = Drug concentration in C57BL/6J mouse plasma at 100 mg/kg, sc measured after 1 hrs by LC-MS/MS analysis; assay type: ADME, organism-based
# [10] = Total clearance in C57BL/6J mouse at 0.5 mg/kg, iv measured after 0.083 to 24 hrs by LC-MS/MS analysis; assay type: ADME, organism-based; settings: in vivo, time 0.083-24 hrs
# [11] = Drug concentration in C57BL/6J mouse plasma at 100 mg/kg, sc measured after 4 hrs by LC-MS/MS analysis; assay type: ADME, organism-based
# [12] = molecular target: T2, Beta-glucuronidase (Homo sapiens, UniProt P08236); assay: Inhibition of recombinant human GUSbeta using 4-MUG as substrate pre-incubated for 10 mins followed by substrate addition and measured after 60 mins by fluorescence based assay
# T2 sequence (P08236 whole entry): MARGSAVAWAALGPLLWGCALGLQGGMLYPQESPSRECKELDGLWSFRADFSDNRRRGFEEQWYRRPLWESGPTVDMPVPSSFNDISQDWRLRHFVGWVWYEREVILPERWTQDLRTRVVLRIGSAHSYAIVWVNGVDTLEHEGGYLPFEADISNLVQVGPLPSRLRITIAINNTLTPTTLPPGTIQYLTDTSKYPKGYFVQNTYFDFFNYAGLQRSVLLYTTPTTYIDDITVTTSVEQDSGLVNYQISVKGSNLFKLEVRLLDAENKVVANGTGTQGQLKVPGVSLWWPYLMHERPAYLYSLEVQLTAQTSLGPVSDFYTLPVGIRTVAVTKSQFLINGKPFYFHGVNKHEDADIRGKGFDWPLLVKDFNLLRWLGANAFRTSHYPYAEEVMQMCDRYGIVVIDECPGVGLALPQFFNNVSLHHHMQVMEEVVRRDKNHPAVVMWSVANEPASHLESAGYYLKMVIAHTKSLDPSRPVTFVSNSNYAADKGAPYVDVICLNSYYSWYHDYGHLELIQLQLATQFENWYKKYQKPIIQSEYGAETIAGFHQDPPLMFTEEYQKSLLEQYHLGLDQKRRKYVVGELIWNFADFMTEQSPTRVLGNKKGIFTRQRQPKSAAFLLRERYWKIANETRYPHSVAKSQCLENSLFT
# [13] = Drug concentration in C57BL/6J mouse plasma at 3 mg/kg, sc measured after 1 hrs by LC-MS/MS analysis; assay type: ADME, organism-based
# [14] = Volume of distribution at steady state in C57BL/6J mouse at 0.5 mg/kg, iv measured after 0.083 to 24 hrs by LC-MS/MS analysis; assay type: ADME, organism-based; settings: in vivo, time 0.083-24 hrs, read-out: Vdss
# [15] = Drug excretion in C57BL/6J mouse urine at 0.5 mg/kg, iv measured after 24 hrs by LC-MS/MS analysis; assay type: ADME, organism-based; settings: read-out: Drug excretion
# [16] = Inhibition of bovine liver beta-glucuronidase; assay type: tissue-based, Bos taurus
smiles,measurement,setting,value
COc1c(CCc2cn3c(n2)[C@H](O)[C@@H](O)[C@H](O)[C@H]3C(=O)O)cccc1Oc1ccccc1,IC50,[1],1600 nM
O=C(O)[C@@H]1[C@@H](O)[C@H](O)[C@@H](O)c2nc(CCc3ccc(S(=O)(=O)c4ccccc4)cc3)cn21,IC50,[1],748 nM
O=C(O)[C@@H]1[C@@H](O)[C@H](O)[C@@H](O)c2nc(-c3ccc(Oc4ccccc4)cc3)cn21,IC50,[1],1100 nM
COc1cccc(OC)c1Oc1cccc(CCc2cn3c(n2)[C@H](O)[C@@H](O)[C@H](O)[C@H]3C(=O)O)c1OC,IC50,[1],9950 nM
O=C(O)[C@@H]1[C@@H](O)[C@H](O)[C@@H](O)c2nc(CCc3ccc(CCc4ccccc4)cc3)cn21,IC50,[1],2000 nM
CO[C@H]1[C@H](O)[C@@H](O)c2nc(CCc3cccc(Oc4ccccc4)c3)cn2[C@@H]1C(=O)O,concentration at 1 h,[2],9820 ng/mL
same,half-life,[3],2.1 h
same,IC50,[1],442 nM
same,concentration at 4 h,[4],1070 ng/mL
same,"fraction unbound at 4 h, 1 ug/ml",[5],0.045
same,concentration at 4 h,[6],191 ng/mL
same,inhibition,[7],Active
same,IC50,[8],439 nM
same,concentration at 1 h,[9],24200 ng/mL
same,clearance,[10],5.83 mL/min/kg
same,concentration at 4 h,[11],1880 ng/mL
same,IC50,[12],839 nM
same,concentration at 1 h,[13],1240 ng/mL
same,Vd,[14],0.666 L/kg
same,dose excreted at 24 h,[15],31.1%
CC(C)c1ccc(Oc2cccc(CCc3cn4c(n3)[C@H](O)[C@@H](O)[C@H](O)[C@H]4C(=O)O)c2)cc1,IC50,[1],1380 nM
Cc1ccc(S(=O)(=O)Nc2ccc(CCc3cn4c(n3)[C@H](O)[C@@H](O)[C@H](O)[C@H]4C(=O)O)cc2)cc1,IC50,[1],1340 nM
O=C(O)[C@@H]1[C@@H](O)[C@H](O)[C@@H](O)c2nc(CCc3cccc(Oc4ccccc4)c3)cn21,half-life,[3],1.6 h
same,IC50,[1],467 nM
same,"fraction unbound at 4 h, 1 ug/ml",[5],0.036
same,IC50,[8],53 nM
same,clearance,[10],8.18 mL/min/kg
same,IC50,[12],8 nM
same,Vd,[14],0.439 L/kg
same,dose excreted at 24 h,[15],44.2%
O=C(O)[C@@H]1[C@@H](O)[C@H](O)[C@@H](O)c2nccn21,Ki,[16],12 nM
O=C(O)[C@@H]1[C@@H](O)[C@H](O)[C@@H](O)c2nc(C3CCN(C(=O)c4ccccc4Oc4ccccc4)CC3)cn21,IC50,[1],1750 nM
O=C(O)[C@@H]1[C@@H](O)[C@H](O)[C@@H](O)c2nc(CCc3ccc(Oc4ccccc4)cc3)cn21,IC50,[1],586 nM
